Calls of active or inactive are those of the source. No cut-off for these calls is given here.
tested on: H3N2 subtype; experiment: Antiviral activity against influenza A virus A/Aichi/2/68 (H3N2) infected in MDCK cells at 10 uM by plaque titration assay relative to control; assay type: functional, A/Aichi/2/1968(H3N2); details: not given

Row | Structure (SMILES) | Activity [%]
1 | N#C[C@]12CCC3(OCCO3)C3=CO[C@H](Cc4cc(OCc5ccccc5)ccc41)[C@@H]32 | 30
2 | N#C[C@]12CCC3(OCCO3)C3=CO[C@H](Cc4cc(-c5ccccc5)ccc41)[C@@H]32 | 70
3 | N#C[C@]12CCC3(OCCO3)C3=CO[C@H](Cc4cc(OCc5cc(F)cc(F)c5)ccc41)[C@@H]32 | 30
4 | N#C[C@]12CCC3(OCCO3)C3=CO[C@H](Cc4cc(-c5c(F)cc(F)cc5F)ccc41)[C@@H]32 | 70

same assay, conditions: A/Aichi/2/1968(H3N2)

Row | Structure (SMILES) | Activity
5 | N#C[C@]12CCC3(OCCO3)C3=CO[C@H](Cc4cc(OCc5ccc(COc6ccc7c(c6)C[C@H]6OC=C8[C@H]6[C@@]7(C#N)CCC86OCCO6)cc5)ccc41)[C@@H]32 | Active
6 | N#C[C@]12CCC3(OCCO3)C3=CO[C@H](Cc4cc(OC(F)(F)F)ccc41)[C@@H]32 | Active
7 | N#C[C@]12CCC3(OCCO3)C3=CO[C@H](Cc4cc(OCc5ccccn5)ccc41)[C@@H]32 | Active
8 | N#C[C@]12CCC3(OCCO3)C3=CO[C@H](Cc4cc(OS(=O)(=O)C(F)(F)F)ccc41)[C@@H]32 | inactive
9 | N#C[C@]12CCC3(OCCO3)C3=CO[C@H](Cc4cc(OCc5cccnc5)ccc41)[C@@H]32 | Active
10 | N#C[C@]12CCC3(OCCO3)C3=CO[C@H](Cc4cc(OCc5ccncc5)ccc41)[C@@H]32 | Active
